Measured values reported in patent publication US4400377A, “Use of polypeptides as analgesic drugs” (priority 1982, dated 1983).
Where two headings read alike, the source gives them in different places. Square brackets hold non-standard residues; d marks the D form. Peptide text beside a SMILES is read from it. sY = N[C@@H](Cc1ccc(OS(=O)(=O)O)cc1)C(=O)O; pGlu = O=C1CC[C@@H](C(=O)O)N1

How the values were obtained:
[1] = tested on: patients suffering from chronic pain in cancer diseases; conditions: i.v. bolus 1 nanogram/kg, single patients
[2] = tested on: patients with pain after surgery

In the case of `CSCC[C@H](NC(=O)[C@H](Cc1c[nH]c2ccccc12)NC(=O)CNC(=O)[C@@H](NC(=O)[C@H](Cc1ccc(OS(=O)(=O)O)cc1)NC(=O)[C@H](CC(=O)O)NC(=O)[C@H](CCC(N)=O)NC(=O)[C@@H]1CCC(=O)N1)[C@@H](C)O)C(=O)N[C@@H](CC(=O)O)C(=O)N[C@@H](Cc1ccccc1)C(N)=O` [Ceruletide, ceruletide] ([pGlu]QD[sY]TGWMDF-NH2), the Side-effects [1] is reported as “None”, the Side-effects ([2]; i.m. 0.05 micrograms/kg, single patients (incl. second injection in patients 34, 40)) is reported as “None” and the Side-effects ([2]; i.m. 0.1 micrograms/kg, single patients) is reported as “None and Burning sensation at the injection site and pain sensation at the injection site”.
